The target of one test is JAK2 (Homo sapiens (Human), UniProt O60674). Nature of the test: JAK2 activity inhibition assay (radioactive kinase / Caliper assay). The test is classed as biochemical. As to the method: (§1) Peptide substrate, [KKSRGDYMTMQIG], (20 μM) is prepared in reaction buffer (20 mM Hepes pH 7.5, 10 mM MgCl2, 1 mM EGTA, 0.02% Brij35, 0.02 mg/mL BSA, 0.1 mM […], 2 mM DTT, 1% DMSO. TYK2 (Invitrogen) kinase is added, followed by compounds in DMSO. 33PATP is added to initiate the reaction in ATP at 10 μM. Kinase reaction is incubated for 120 min at room temp and reactions are spotted onto P81 ion exchange paper (Whatman #3698-915), and then washed extensively in 0.75% phosphoric acid, prior to reading the radioactivity counts. For JAK2 (Invitrogen) kinase assay the peptide substrate poly[Glu:Tyr] (4:1), 0.2 mg/ml is used, in the reaction carried out the same as for TYK2.
JAK2, sequence (O60674 whole entry): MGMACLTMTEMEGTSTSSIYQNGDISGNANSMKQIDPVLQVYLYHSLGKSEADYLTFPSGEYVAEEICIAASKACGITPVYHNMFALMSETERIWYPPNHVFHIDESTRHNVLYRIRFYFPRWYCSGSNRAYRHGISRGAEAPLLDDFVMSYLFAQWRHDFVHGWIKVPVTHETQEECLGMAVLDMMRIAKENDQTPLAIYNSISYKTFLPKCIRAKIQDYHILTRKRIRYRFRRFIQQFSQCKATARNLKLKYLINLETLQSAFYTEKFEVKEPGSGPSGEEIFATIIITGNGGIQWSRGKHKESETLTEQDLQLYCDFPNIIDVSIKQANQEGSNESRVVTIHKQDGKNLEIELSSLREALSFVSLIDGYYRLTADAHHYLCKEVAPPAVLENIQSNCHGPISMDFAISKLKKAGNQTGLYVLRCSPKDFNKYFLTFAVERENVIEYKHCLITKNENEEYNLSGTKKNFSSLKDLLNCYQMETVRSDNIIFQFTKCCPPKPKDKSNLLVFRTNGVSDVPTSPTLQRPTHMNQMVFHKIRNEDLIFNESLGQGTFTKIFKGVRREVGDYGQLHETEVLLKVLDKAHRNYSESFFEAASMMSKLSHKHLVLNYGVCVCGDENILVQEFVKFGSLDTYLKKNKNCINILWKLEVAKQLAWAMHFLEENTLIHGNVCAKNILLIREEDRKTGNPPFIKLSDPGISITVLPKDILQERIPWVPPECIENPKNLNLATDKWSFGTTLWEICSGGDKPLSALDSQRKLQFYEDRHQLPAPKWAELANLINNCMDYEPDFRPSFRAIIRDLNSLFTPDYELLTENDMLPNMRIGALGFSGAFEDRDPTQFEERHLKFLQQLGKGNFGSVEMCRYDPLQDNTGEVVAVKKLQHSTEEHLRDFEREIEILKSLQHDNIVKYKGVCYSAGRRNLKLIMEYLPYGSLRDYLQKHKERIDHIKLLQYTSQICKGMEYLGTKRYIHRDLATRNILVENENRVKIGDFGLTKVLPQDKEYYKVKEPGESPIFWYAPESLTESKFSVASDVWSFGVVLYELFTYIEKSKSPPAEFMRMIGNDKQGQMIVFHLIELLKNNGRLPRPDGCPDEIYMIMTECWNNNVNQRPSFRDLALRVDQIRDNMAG
(§2) The caliper machine employs an off chip mobility shift assay to detect phosphorylated peptide substrates from kinase assays, using microfluidics technology. The assays are carried out at ATP concentration equivalent to the ATP Km, and at 1 mM ATP. Compounds are serially diluted in DMSO then further diluted in assay buffer (25 mM HEPES, pH 7.5, 0.01% Brij-35, 0.01% Triton, 0.5 mM EGTA). 5 ul of diluted compound was added into wells first, then 10 ul of enzyme mix was added into wells, followed by 10 uL of substrate mix (peptide and ATP in 10 mM MgCl2) to start reaction. Reaction was incubated at 28° C. for 25 min and then added 25 ul stop buffer (100 mM HEPES, 0.015% Brij-35, 50 mM EDTA), followed by reading with Caliper. JAK2 at 1 nM final concentration and TYK2 at 9.75 nM are from Carna, and substrates used are ATP at 20 and 16 uM, respectively. JAK2 assay uses peptide 22 and TYK2 uses peptide 30 (Caliper), each at 3 uM.
(§3) The compound numbers correspond to the compound numbers in Table 1. Compounds having an activity designated as “A” provided an Ki≤0.01 μM; compounds having an activity designated as “B” provided an Ki of 0.01-0.1 μM; compounds having an activity designated as “C” provided an Ki of 0.1-1.0 μM; and compounds having an activity designated as “D” provided an Ki≥1.0 μM.

Another test deals with TYK2 (Homo sapiens (Human), UniProt P29597). As to the kind of experiment: Tyk2 activity inhibition assay (radioactive kinase / Caliper assay). The test is classed as biochemical. On the procedure: as §1, §2, §3
TYK2, sequence (P29597 whole entry): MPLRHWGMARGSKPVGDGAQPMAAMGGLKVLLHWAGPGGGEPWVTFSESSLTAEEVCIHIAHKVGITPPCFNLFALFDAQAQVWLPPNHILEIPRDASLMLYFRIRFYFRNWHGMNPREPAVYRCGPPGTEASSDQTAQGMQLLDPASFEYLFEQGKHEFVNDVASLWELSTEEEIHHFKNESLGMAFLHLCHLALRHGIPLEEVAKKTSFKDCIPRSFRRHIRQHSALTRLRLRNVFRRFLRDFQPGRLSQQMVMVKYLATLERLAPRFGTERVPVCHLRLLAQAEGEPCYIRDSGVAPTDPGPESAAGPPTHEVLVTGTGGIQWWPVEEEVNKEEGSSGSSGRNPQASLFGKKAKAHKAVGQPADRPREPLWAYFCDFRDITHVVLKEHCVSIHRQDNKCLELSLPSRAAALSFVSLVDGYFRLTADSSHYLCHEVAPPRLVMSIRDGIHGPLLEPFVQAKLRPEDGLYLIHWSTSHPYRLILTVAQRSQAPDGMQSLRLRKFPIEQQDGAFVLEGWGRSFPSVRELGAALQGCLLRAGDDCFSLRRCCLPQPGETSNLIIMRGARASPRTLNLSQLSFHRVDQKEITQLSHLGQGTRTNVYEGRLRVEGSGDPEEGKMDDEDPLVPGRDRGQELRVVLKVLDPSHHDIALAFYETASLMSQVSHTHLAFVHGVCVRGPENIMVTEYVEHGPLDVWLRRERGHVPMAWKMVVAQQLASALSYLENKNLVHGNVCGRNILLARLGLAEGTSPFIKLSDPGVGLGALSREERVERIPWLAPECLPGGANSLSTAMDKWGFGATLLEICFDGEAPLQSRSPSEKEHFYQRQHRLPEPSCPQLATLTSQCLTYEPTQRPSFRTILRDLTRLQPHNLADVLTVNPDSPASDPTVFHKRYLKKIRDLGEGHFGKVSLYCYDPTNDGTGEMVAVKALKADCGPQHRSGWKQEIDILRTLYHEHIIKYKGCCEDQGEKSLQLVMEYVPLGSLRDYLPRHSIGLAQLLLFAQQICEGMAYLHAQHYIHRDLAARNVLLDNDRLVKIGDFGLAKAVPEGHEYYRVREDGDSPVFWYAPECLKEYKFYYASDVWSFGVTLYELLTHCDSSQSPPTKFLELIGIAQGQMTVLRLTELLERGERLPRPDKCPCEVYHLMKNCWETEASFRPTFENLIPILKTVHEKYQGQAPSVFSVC

Structures can show the parent of a compound that is named as a salt.

For orientation: Ki means a dissociation constant, usually derived from enzyme kinetics or from competition with a known ligand. With `CCNC(=O)[C@](O)(CC(F)(F)F)c1ccc(Nc2nc(-c3c(F)cccc3F)nc3c2C(=O)NC3)cc1` [Compound I-27, (S)-2-(4-((2-(2,6-difluorophenyl)-5-oxo-6,7-dihydro-5H-pyrrolo[3,4-d]pyrimidin-4-yl)amino)phenyl)-N-ethyl-4,4,4-trifluoro-2-hydroxybutanamide], the Ki on JAK2 lay in the range of 10 to 100 nM.

On to `O=C1NCc2nc(-c3c(F)cccc3F)nc(Nc3ccc([C@@H](O)C(F)(F)F)cc3)c21` [Compound I-31, (R)-2-(2,6-difluorophenyl)-4-((4-(2,2,2-trifluoro-1-hydro-xyethyl)phenyl)amino)-6,7-dihydro-5H-pyrrolo[3,4-d]pyrimidin-5-one], for which the Ki on JAK2 was in the range of 10 to 100 nM.

With `O=C1NCc2nc(-c3c(F)cccc3F)cc(Nc3ccc4c(c3)COB4O)c21` [Compound I-61, 2-(2,6-difluorophenyl)-4-((1-hydroxy-1,3-dihydro-benzo-[c][1,2]oxaborol-5-yl)amino)-6,7-dihydro-5H-pyrrolo[3,4-b]pyridin-5-one], the Ki on TYK2 is 10 to 100 nM; on JAK2, ≥ 1000 nM.

As to `C[C@@](O)(c1ccc(Nc2nc(-c3c(F)cccc3F)nc3c2C(=O)NC3)cc1)C(F)(F)F` [Compound I-35, (R)-2-(2,6-difluorophenyl)-4-((4-(1,1,1-trifluoro-2-hydroxy-propan-2-yl)phenyl)amino)-6,7-dihydro-5H-pyrrolo[3,4-d]pyrimidin-5-one], the inhibition constant Ki at JAK2 lay within 100 to 1000 nM.

Regarding `C[C@](O)(c1ccc(Nc2cc(-c3c(F)cccc3F)nc3c2C(=O)NC3)cc1)C(F)(F)F` [Compound I-43, (S)-2-(2,6-difluorophenyl)-4-((4-(1,1,1-trifluoro-2-hydroxypropan-2-yl)phenyl)amino)-6,7-dihydro-5H-pyrrolo[3,4-b]pyridin-5-one], the Ki on JAK2 lay within 10 to 100 nM.

Take `CCNC(=O)C(C)(N)c1ccc(Nc2nc(-c3c(F)cccc3F)nc3c2C(=O)NC3)cc1` (centres unmarked) [Compound I-9, 2-amino-2-(4-((2-(2,6-difluorophenyl)-5-oxo-6,7-dihydro-5H-pyrrolo[3,4-d]pyrimidin-4-yl)amino)phenyl)-N-ethylpropanamide]: the Ki at TYK2 and on JAK2 was 10 to 100 nM in each case.

Consider `C[C@@](N)(C(=O)O)c1ccc(Nc2nc(-c3c(F)cccc3F)nc3c2C(=O)NC3)cc1` [Compound I-45, (S)-2-amino-2-(4-((2-(2,6-difluorophenyl)-5-oxo-6,7-dihydro-5H-pyrrolo[3,4-d]pyrimidin-4-yl)amino)phenyl)propanoic acid hydrochloride], for which the inhibitory constant (Ki) at TYK2 is ≤ 10 nM; at JAK2 it was 100 to 1000 nM.

Regarding `CCNC(=O)C(O)(CC(F)(F)F)c1ccc(Nc2nc(-c3c(F)cccc3F)nc3c2C(=O)NC3)cc1` (centres unmarked) [Compound I-26, 2-(4-((2-(2,6-difluorophenyl)-5-oxo-6,7-dihydro-5H-pyrrolo[3,4-d]pyrimidin-4-yl)amino)phenyl)-N-ethyl-4,4,4-trifluoro-2-hydroxybutanamide], the figures for the inhibition constant (Ki) on TYK2 and at JAK2 were ≤ 10 nM and 100 to 1000 nM, respectively.

Consider `O=C1NCc2nc(-c3c(F)cccc3F)cc(Nc3ccc4c(c3)OC(F)(F)O4)c21` [Compound I-69, 4-((2,2-difluorobenzo[d][1,3]dioxol-5-yl)amino)-2-(2,6-difluoro-phenyl)-6,7-dihydro-5H-pyrrolo[3,4-b]pyridin-5-one], for which the Ki at TYK2 is 10 to 100 nM; on JAK2, ≥ 1000 nM.

As for `CC(O)(c1ccc(Nc2cc(-c3c(F)cccc3F)nc3c2C(=O)NC3)nc1)C(F)(F)F` (centres unmarked) [Compound I-78, 2-(2,6-difluorophenyl)-4-((5-(1,1,1-trifluoro-2-hydroxypropan-2-yl)pyridin-2-yl)amino)-6,7-dihydro-5H-pyrrolo[3,4-b]pyridin-5-one], the Ki was ≤ 10 nM on TYK2 and 10 to 100 nM at JAK2.

For the molecule `O=C1NCc2nc(-c3c(F)cccc3F)cc(Nc3ccc(C(O)(C(F)(F)F)C(F)(F)F)cc3)c21` [Compound I-66, 2-(2,6-difluorophenyl)-4-((4-(1,1,1,3,3,3-hexafluoro-2-hydroxy-propan-2-yl)phenyl)amino)-6,7-dihydro-5H-pyrrolo[3,4-b]pyridin-5-one], the results for the Ki at TYK2 and at JAK2 were ≤ 10 nM and 10 to 100 nM, respectively.

In the case of `CCNC(=O)[C@](C)(O)c1ccc(Nc2nc(-c3c(F)cccc3F)nc3c2C(=O)NC3)cc1` [Compound I-16, (R)-2-(4-((2-(2,6-difluorophenyl)-5-oxo-6,7-dihydro-5H-pyrrolo[3,4-d]pyrimidin-4-yl)amino)phenyl)-N-ethyl-2-hydroxypropanamide], the inhibition constant (Ki) on TYK2 was ≤ 10 nM; on JAK2 it was 100 to 1000 nM.

Take `O=C1NCc2nc(-c3c(F)cccc3F)cc(Nc3ccc(N4CCOCC45CC5)cn3)c21` [Compound I-47, 4-((5-(7-oxa-4-azaspiro[2.5]octan-4-yl)pyridin-2-yl)amino)-2-(2,6-difluorophenyl)-6,7-dihydro-5H-pyrrolo[3,4-b]pyridin-5-one]: the Ki on TYK2 and at JAK2 was ≤ 10 nM throughout.

As to `O=C1NCc2nc(-c3c(F)cccc3F)nc(Nc3ccc(C(O)C(F)(F)F)cc3)c21` (centres unmarked) [Compound I-29, 2-(2,6-difluorophenyl)-4-((4-(2,2,2-trifluoro-1-hydroxy-ethyl)phenyl)amino)-6,7-dihydro-5H-pyrrolo[3,4-d]pyrimidin-5-one], the results for the Ki on TYK2 and on JAK2 were ≤ 10 nM and 100 to 1000 nM, respectively.

Turning to `N#Cc1cccc(F)c1-c1cc(Nc2ccc(N3CC[C@]4(C[C@@H](O)CO4)C3)cn2)c2c(n1)CNC2=O` [Compound I-92, 3-fluoro-2-(4-((5-((3R,5S)-3-hydroxy-1-oxa-7-azaspiro[4.4]nonan-7-yl)pyridin-2-yl)amino)-5-oxo-6,7-dihydro-5H-pyrrolo[3,4-b]pyridin-2-yl)benzonitrile], the inhibitory constant (Ki) on TYK2 was ≤ 10 nM; at JAK2, 10 to 100 nM.

For `N#Cc1cccc(F)c1-c1cc(Nc2ccc(N3CC[C@@]4(C[C@@H](O)CO4)C3)cn2)c2c(n1)CNC2=O` [Compound I-90], the Ki on TYK2 and at JAK2 was ≤ 10 nM throughout.

Regarding `CC(O)(c1ccc(Nc2cc(-c3c(F)cccc3F)nc3c2C(=O)NC3)cc1)C(F)(F)F` (centres unmarked) [Compound I-42, 2-(2,6-difluorophenyl)-4-((4-(1,1,1-trifluoro-2-hydroxypropan-2-yl)phenyl)amino)-6,7-dihydro-5H-pyrrolo[3,4-b]pyridin-5-one], the inhibition constant (Ki) was ≤ 10 nM at TYK2 and 10 to 100 nM at JAK2.

As to `CCNC(=O)C(C)(C)c1ccc(Nc2cc(-c3c(F)cccc3C#N)nc3c2C(=O)NC3)cc1` [Compound I-81, 2-(4-((2-(2-cyano-6-fluorophenyl)-5-oxo-6,7-dihydro-5H-pyrrolo[3,4-b]pyridin-4-yl)amino)phenyl)-N-ethyl-2-methylpropanamide], the Ki on TYK2 and on JAK2 was ≤ 10 nM throughout.

Regarding `O=C1NCc2nc(-c3c(F)cccc3F)nc(Nc3ccc([C@H](O)C(F)(F)F)cc3)c21` [Compound I-30, (S)-2-(2,6-difluorophenyl)-4-((4-(2,2,2-trifluoro-1-hydroxyethyl)phenyl)amino)-6,7-dihydro-5H-pyrrolo[3,4-d]pyrimidin-5-one], on JAK2, the Ki fell in the range of 100 to 1000 nM.

Consider `CC1(c2ccc(Nc3cc(-c4c(F)cccc4F)nc4c3C(=O)NC4)nc2)CC(C)(C)N(C2=CCOCC2)C1=O` (centres unmarked) [Compound I-55, 2-(2,6-difluorophenyl)-4-((5-(1-(3,6-dihydro-2H-pyran-4-yl)-3,5,5-trimethyl-2-oxopyrrolidin-3-yl)pyridin-2-yl)amino)-6,7-dihydro-5H-pyrrolo[3,4-b]pyridin-5-one], for which the Ki at TYK2 and on JAK2 was ≤ 10 nM each time.

In the case of `C[C@@](O)(c1ccc(Nc2cc(-c3c(F)cccc3F)nc3c2C(=O)NC3)cc1)C(F)(F)F` [Compound I-44, (R)-2-(2,6-difluorophenyl)-4-((4-(1,1,1-trifluoro-2-hydroxy-nronan-2-yl)phenyl)amino)-6,7-dihydro-5H-pyrrolo[3,4-b]pyridin-5-one], the inhibition constant Ki on JAK2 was in the range of 100 to 1000 nM.

As for `CN1C(=O)[C@](C)(c2ccc(Nc3nc(-c4c(F)cccc4F)nc4c3C(=O)NC4)cc2)Oc2ccccc21` [Compound I-40, (S)-2-(4-((2-(2,6-difluorophenyl)-5-oxo-6,7-dihydro-5H-pyrrolo[3,4-d]pyrimidin-4-yl)amino)phenyl)-2,4-dimethyl-2H-benzo[b][1,4]oxazin-3(4H)-one], on TYK2, the Ki was 100 to 1000 nM.

`CCNC(=O)[C@@](O)(CC(F)(F)F)c1ccc(Nc2nc(-c3c(F)cccc3F)nc3c2C(=O)NC3)cc1` [Compound I-28, (R)-2-(4-((2-(2,6-difluorophenyl)-5-oxo-6,7-dihydro-5H-pyrrolo[3,4-d]pyrimidin-4-yl)amino)phenyl)-N-ethyl-4,4,4-trifluoro-2-hydroxybutanamide]: the inhibition constant Ki at JAK2 lay in the range of 100 to 1000 nM.

For the origin of these results see US10968236B2, “TYK2 inhibitors and uses thereof” (Nimbus Lakshmi, Inc., priority 2015, dated 2021).
